Laboratory results reported in patent US9145375B2, “Quinazolinone compounds” (PRANA BIOTECHNOLOGY LIMITED, priority 2008, dated 2015).
Values joined by “and” are separate entries in the source; they are usually repeats but may differ in a detail not shown here. Equal values may be shown once.

Columns and labels:
[1] = test system: MPTP induced cell death in the SN; assay: Parkinson's disease in vivo: MPTP model; design: species or system mouse; details: MPTP mice; for Behaviour Pole Test, % (SSV = 0%) / Behaviour Pole Test, value ± SD: 30 mg/kg; for SN cell counts % of SSV / SN cell counts (cells +/− SD): test drug 30 mg/kg daily by oral gavage, several experiments
Excerpt: Parkinson's Disease In Vivo Technique: MPTP
MPTP (1-methyl 4-phenyl 1,2,3,6-tetrahydropyridine) is a chemical that is related to the opioid analgesic drugs. MPTP causes Parkinsonian side-effects. This occurs when MPTP is metabolized into MPP+, which kills neurons in a part of the brain called the substantia nigra. MPP+ interferes with mitochondria metabolism which leads to cell death and causes the build up of free radicals, toxic molecules that contribute further to cell destruction. MPTP has abilities to effect neuronal death in dopaminergic cells. Such effects lead to gross depletion of dopaminergic neurons which has severe implications on cortical control of complex movements.
General Experimental Design
Determining that MPTP Causes Continued Cell Death
Control (non tg) and transgenic mice receive five intraperitoneal injections of MPTP-HCl (23 gauge needle, 20 mg\kg of free base; Sigma, St. Louis, Mo., USA) dissolved in sterile 0.9% saline at 2-h interval in 1 day. Control animals receive five intraperitoneal injections of 0.9% saline. […] 20 C57BL6, 10 control and 10 hA53T tg are used to establish the precise dose of toxin at 2 weeks. Animals are allowed to recover for 1 week, 2 weeks, 1 month, 12, months and 18 months. The animals are killed and the brains removed for histological (stereological) and biochemical analysis.
Determining Whether Test Drug Reduces MPTP Induced Cell Death
Animals are treated as described above. They are treated with test drug 2 days after MPTP injection until death. Test drug is given by oral gavage at a daily dosage of 30 mg/kg. The time of killing the animals is dependant on the analysis of Experiment 1, normally one month or less.
Drugs are administered by oral gavage, at a daily dosage of 30 mg/kg.
Mice are assessed at prior to killing the mice for histological analysis.
Motor coordination and strength are assessed using the rotarod. The rotarod consists of a plastic rotating rod of 3.6 cm axial diameter partitioned by metal disks into five sections to allow the testing of multiple mice simultaneously. Mice are trained on two sessions where the rotation speed is ramped from 0-30 rpm over 5 min and one training session where rotation is a constant 16 rpm for 5 min. Within two days of training, animals are formally assessed on the rotarod rotating at 16 rpm for a maximum of 3 min: the time to fall on this single test is the recorded data point.
The pole is a 700 mm long, 5 mm diameter, wooden rod. The rod is supported at its base and held vertical. The total walking distance for the mice is 550 mm. The time taken for the mouse to descend the pole is measured with a maximum time of 120 s. If a mouse falls, the time is scored as 120 s.

Fe-DA = assay: H2O2 assay, Fe-DA (% cf. Fe 0.4 μM/DA 50 μM); assay type: biochemical
Protocol: (§1) This fluoresence assay evaluates the ability of a test compound to inhibit the generation of hydrogen peroxide (H2O2) by iron in the presence of a reducing substrate such as ascorbic acid. In the assay, iron in the form of FeCl3 or copper is allowed to react with ascorbic acid by incubating for 1 hr at 37° C. in the presence of the fluorescing compound DCF and horseradish peroxidase. H2O2 generated by the system is assessed by measuring the specific fluorescence profile at the excitation and emission wavelengths of 485 and 530 nm respectively, in the presence of increasing concentrations of test compound. Test compounds are ranked according to their capacity to inhibit H2O2 generated by the system where lower values reflect greater ability to inhibit H2O2 production.

M17 = assay: Cytotox (% viable), cells marked M17; assay type: cell-based, human; details: repeat values given
[2] = test system: generation of hydrogen peroxide (H2O2) by iron; assay: H2O2 Inhibition Assay; assay type: biochemical
Protocol: Assay 1. H2O2 Inhibition Assay.
as §1

[3] = test system: M17 human neuroblastoma cells; assay: Metal Uptake Assay (metal transport); assay type: cell-based; details: 10 μM Cu + 10 μM compound, 5 hours
Protocol: Assay 3. Metal Uptake Assay
M17 human neuroblastoma cells are plated out on 6 well plates and left overnight. Enough cells are added to give approximately 70% confluent the following day of the experiment. Test compounds are added to media and mixed with equi-molar amounts of CuCl2 solution. A=10 μM Cu+10 μM MPAC; B=10 μM Cu+10 μM MPAC.
Cells are incubated in 1 ml of media/MPAC/Cu mix for 5 hours at 37° C. At the end of the incubation the media is removed with a vacuum aspirator and 1 ml of PBS added to dislodge the cells. Cells are then put into Eppendorf tubes and pelleted. The PBS is removed and the remaining cell pellets are frozen at −20 C.
The cell pellets are prepared as follows:
Received cell pellets of similar levels in 1.5 ml microfuge tubes. Added 50 μl of concentrated Nitric Acid (Aristar, BDH) to each cell pellet and allowed them to digest over night. Heated the samples for 20 min at 90° C. to complete the digestion. The volume of each sample was reduced to ˜45 ul after digestion. Added 1 ml of the 1% Nitric Acid diluent to each sample. (referred to as the “preparation solution” samples).
Measurements were made using a Varian UltraMass ICPMS instrument under operating conditions suitable for routine multi-element analysis.
The instrument was calibrated using Blank, 10, 50 and 100 ppb of a certified multi-element ICPMS standard solution (ICP-MS—CAI2-1, Accustandard) for Fe, Cu and Zn in 1% nitric acid. Used an certified internal standard solution containing 100 ppb Yttrium (Y 89) as an internal control (ICP-MS—IS-MIX1-1, Accustandard).

Mouse Plasma Conc. = assay type: in vivo; details: given as 'Up to'
Neuronal cortical cells = assay: Cytotox (% viable); Primary Neuronal Cells Neurotoxicity Assay; assay type: cell-based, mouse; details: cell type not given, repeat values given
Protocol: Assay 2 (a). Primary Neuronal Cells Neurotoxicity Assays
Cortical cultures were prepared as previously described (White et al., 1998). Embryonic day 14 BL6Jx129sv mouse cortices were removed, dissected free of meninges and dissociated in 0.025% (wt/vol) trypsin. Dissociated cells were plated in 48 well culture plates at a density of 2×10^6 cells/mL in MEM with 25% (vol/vol) FCS and 5% (vol/vol) HS and incubated at 37° C., 2 hrs. Media was then replaced with Neurobasal media (Invitrogen Life Technologies) and B27 supplements (Invitrogen Life Technologies). Cultures were maintained at 37° C. in 5% CO2. Prior to experimentation, the culture medium was replaced with Neurobasal media and B27 minus antioxidants (Invitrogen Life Technologies).
Neuronal cortical cells were cultured for five days as per Assay 2 in NB media and B27 supplement.
On day six the test compounds were added to the neuronal cell cultures in NB media and B27 supplement minus antioxidants.
Test compounds were dissolved in 100% DMSO to a concentration of 2.5 mM (10 mM if excess compound was weighed out per vial—then diluted to 2.5 mM). 2.5 mM stock solution was serially diluted 1 in 10 to give working solutions of 250 uM, 25 uM, 2.5 uM. Test compounds were not added directly to cells, instead they were added to a 48 well ‘Drug Plate’ as comprised below: • Preparation of “Drug Plate”:
Well 1: 576 ul NB+B27 (no antioxidant)*+24 ul 2.5 uM test compound
Well 2: 576 ul NB+B27 (no antioxidant)+24 μl 25 uM test compound
Well 3: 576 ul NB+B27 (no antioxidant)+24 ul 250 uM test compound
Well 4: 576 ul NB+B27 (no antioxidant)+24 ul 2.5 uM test compound
Well 5: 576 ul NB+B27 (no antioxidant)+24 ul 25 uM test compound
Well 6: 576 ul NB+B27 (no antioxidant)+24 ul 250 uM test compound
Well 7: 576 ul NB+B27 (no antioxidant)+24 ul test compound diluent**
Well 8: 600 ul NB+B27 (no antioxidant)
The Drug Plate was incubated at 37° C. for 15 mins. 200 ul of each well was added in triplicate to the corresponding cell plate. The cell plate was incubated at 37° C., for 4 days, (2 compounds are tested on each plate of cells).
*NB media and B27 (no antioxidants),
**PBT diluent 10% DMSO in NB+1327 (no antioxidants)
On completion of the assay, 1/10 volume MTS was added per well of plate (ie 25 ul/250 ul). The plates were incubated at 37° C. for 2 hrs, and then absorbance was read at 560 nm.

Compound | Behaviour Pole Test, % (SSV = 0%) [1] [%] | Behaviour Pole Test, value ± SD [1] | SN cell counts % of SSV [1] [%] | SN cell counts (cells +/− SD) [1] | Fe-DA % cf. Fe 0.4 μM/DA 50 μM (Fe-DA) [%] | Cytotox (% viable at 1 uM) (M17) | Cytotox (% viable at 10 uM) (M17) | IC50 [2] [nM] | Metal transport [3] | Mouse Plasma Conc. (Mouse Plasma Conc.) [ng/mL] | Fe-DA % cf. Fe/DA (Fe-DA; 2 μM Fe) [%] | Cytotox (% viable at 1 uM) (Neuronal cortical cells) | Cytotox (% viable at 10 uM) (Neuronal cortical cells)
CCCn1c(CNC)nc2c(O)c(Cl)cc(Cl)c2c1=O [Compound F4095, 5,7-Dichloro-8-hydroxy-2-((methylamino)methyl)-3-propylquinazolin-4(3H)-one] | 24.25 | (2.21 ± 0.89) | 12.15 | (2436.00 ± 603.06) cells | – | – | – | – | – | – | – | – | –
CC(C)Cn1c(CN(C)C)nc2c(O)c(Cl)cc(Cl)c2c1=O.Cl [Compound F4271, 5,7-Dichloro-2-((dimethylamino)methyl)-8-hydroxy-3-isobutylquinazolin-4(3H)-one] | – | – | – | – | 57 | 104.4% and 102.3% | 61.5% and 52.5% | 170 | Metal transport 27.8% | – | – | – | –
CCN1CCN(Cc2nc3c(O)c(Cl)cc(Cl)c3c(=O)n2CC2CC2)CC1 [Compound F4383] | – | – | – | – | 81 | 118.5% and 102.3% | 103.4% and 92.7% | 1510 | Metal transport 8% | – | – | – | –
O=c1c2c(Cl)cc(Cl)c(O)c2nc(CN2CCOCC2)n1CC1CC1 [Compound F4384] | – | – | – | – | – | 116.3% and 106.4% | 86.5% and 73.0% | – | Metal transport 17% | – | – | – | –
CCN(CC)Cc1nc2c(O)c(Cl)cc(Cl)c2c(=O)n1CC [Compound F4386] | – | – | – | – | 77 | 101.8% and 99.8% and 101.4% and 107.9% | 105.2% and 91.9% and 111.7% and 106.8% | 330 | Metal transport 13% | ≤ 3294.1 | – | – | –
O=c1c2c(Cl)cc(Cl)c(O)c2nc(CN2CCCCC2)n1CC1CC1 [Compound F4391] | 9.96 | (2.63 ± 1.10) | 25.18 | (2719.11 ± 255.12) cells | – | 87.4% and 95.9% and 96.0% | 57.5% and 70.5% and 66.5% | 590 | Metal transport 34% | ≤ 17255.9 | 97 | – | –
CCN(CC)Cc1nc2c(O)c(Cl)cc(Cl)c2c(=O)n1C [Compound F4473] | – | – | – | – | 62 | – | – | 600 | Metal transport 9% | ≤ 1356.2 | – | 97.0% and 99.0% | 91.6% and 106.1%
CCn1c(CN2CCCCC2)nc2c(O)c(Cl)cc(Cl)c2c1=O [Compound F4483] | – | – | – | – | 62 | – | – | 330 | Metal transport 22% | ≤ 1585.2 | – | 93.4% and 105.5% | 99.7% and 72.3%
